Assay [1] has as its target T1, PAT (Penicillium chrysogenum, UniProt P15802). Kind of assay: Substrate specificity of purified PAT (fraction AL 278/2), specific enzyme activity by HPLC. The format is biochemical, Penicillium chrysogenum P2/ATCC 48271.
In assay [2] the test system is Micrococcus luteus ATCC 9341/BC 85. Briefly: Agar diffusion test of penicillin standards (inhibition zone diameter). The format is cell-based.
The target of assay [3] is T1, PAT. Briefly: Microbiological agar diffusion test (Micrococcus luteus ATCC 9341/BC 85) of transacylation of Isopenicillin N with PaCoA by enzyme preparation AS-Präzipitat. The format is biochemical, Penicillium chrysogenum P2/ATCC 48271. How it is done: (§1) Die, wie in Beispiel 2 beschrieben, hergestellte Enzymrohpräzipitation wird im mikrobiologischen Agardiffusionstest hinsichtlich Transacylierung von 6-APA bzw. Isopenicillin N mit PaCoA und Spaltung von Kalium Penicillin V mit bzw. ohne Inhibitorzusatz folgendermaßen getestet: Testkeim: Micrococcus luteus ATCC 9341/BC 85, 0,5% Einsaat Testmedium: Antibiotic Medium 1 (DIFCO), 110 ml Testplatte: Nunc 243x243x18 mm Probe: 50 µl pro Näpfchen (6 mm Durchmesser) Inkubation: 37°, 15 Stunden Enzym: AS-Präzipitat (hergestellt wie in Beispiel 2 beschrieben): 1 ml zentrifugiert (20.000 Upm/10 min), Überstand verworfen, Pellet in 20 ml RP + Z resuspendiert. RP + Z: 0,1 M Phosphatpuffer pH 7,5 + 1 mM DTT + 10 mM MgCl₂
Sofort bzw. nach 7, 30 und 60 Minuten Inkubationszeit werden 20 µl Aliquots der Ansätze entnommen, 1:5 mit 50% Ethanol (Stoppen der Enzymreaktion) verdünnt und im Agardiffusionstest auf Penicillingehalt getestet.
A general note: In agar diffusion tests the substance spreads into inoculated agar from a disc or well.

Assay [4] concerns the target T1, PAT. Kind of assay: Penicillin V cleavage by AS-Präzipitat, residual penicillin by agar diffusion test. The format is biochemical, Penicillium chrysogenum P2/ATCC 48271. How it is done:
as §1

Setting [5] is: labelled substance = Acyldonator, Acylakzeptor H₂O, Produkt 6-APA.
The mark [6] stands for this setting: labelled substance = Acylakzeptor, Acyldonator PaCoA.
Setting [7] is: labelled substance = Acylakzeptor, Acyldonator PeCoA.

Several values for one entry are separate records, joined by “and”; a condition that tells them apart may be missing. Equal entries are not always repeated.

T1 sequence (P15802 103-357 limits assumed): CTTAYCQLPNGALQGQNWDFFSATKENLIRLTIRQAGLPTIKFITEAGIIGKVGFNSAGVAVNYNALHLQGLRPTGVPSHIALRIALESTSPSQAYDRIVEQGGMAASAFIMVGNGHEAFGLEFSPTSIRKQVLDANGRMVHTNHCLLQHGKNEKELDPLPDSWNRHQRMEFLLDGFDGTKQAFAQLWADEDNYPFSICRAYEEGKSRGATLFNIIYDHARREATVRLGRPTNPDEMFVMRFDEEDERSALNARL
T1 sequence (P15802 1-102 limits assumed): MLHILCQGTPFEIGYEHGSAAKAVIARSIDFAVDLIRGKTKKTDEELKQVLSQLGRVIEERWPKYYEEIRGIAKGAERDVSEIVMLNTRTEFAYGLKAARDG

In the case of 7-Glutaryl-APA, the “mittels HPLC bestimmte spezifische Enzymaktivität (mU/mg Protein) A1 278/2” value in assay [1] (setting [5]) was determined as 106 mU/mg Protein.

With `CC(=O)OCC1=C(C(=O)O)N2C(=O)[C@@H](N)[C@H]2SC1` [7-ACA], the “mittels HPLC bestimmte spezifische Enzymaktivität (mU/mg Protein) A1 278/2” value in assay [1] (setting [6]) came out at 0 mU/mg Protein.

Regarding `CC1=C(C(=O)O)N2C(=O)[C@@H](N)[C@H]2SC1` [7-ADCA, 7-Amino-3-desacetoxycephalosporansäure], the “mittels HPLC bestimmte spezifische Enzymaktivität (mU/mg Protein) A1 278/2” value in assay [1] (setting [6]) is 49 mU/mg Protein.

As for `CC(=O)OCC1=C(C(=O)O)N2C(=O)[C@@H](NC(=O)CCC[C@@H](N)C(=O)O)[C@H]2SC1` [Cephalosporin C], the “mittels HPLC bestimmte spezifische Enzymaktivität (mU/mg Protein) A1 278/2” value in assay [1] (setting [6]) is given as 0 mU/mg Protein.

For `CC1(C)S[C@@H]2[C@H](NC(=O)CCC[C@H](N)C(=O)O)C(=O)N2[C@H]1C(=O)O` [Isopenicillin N Nr. 28, Isopenicillin N], in assay [2] (Micrococcus luteus, ATCC9341, 15 h, read-out: HH ⌀ mm, Isopenicillin N Std. 12.5 µg/ml), the zone of inhibition at 12.5 µg/mL amounted to 12.4 mm. In addition, the zone of inhibition at 25 µg/mL in assay [2] (Micrococcus luteus, ATCC9341, 15 h, read-out: HH ⌀ mm, Isopenicillin N Std. 25 µg/ml) stood at 16.5 mm. Besides, in assay [2] (Micrococcus luteus, ATCC9341, 15 h, read-out: HH ⌀ mm, Isopenicillin N Std. 50 µg/ml), the zone of inhibition at 50 µg/mL was found to be 20 mm. Besides, the “Transacylierung von Isopenicillin N (#28 u 36) mit PaCoA (HH ⌀ mm)” value (“Transacylierung von Isopenicillin N” for short) in assay [3] (a) ohne Inhibitor, 7′, listed as Nr. 28) is 25.5 mm; in assay [3] (a) ohne Inhibitor, 30′, listed as Nr. 28) it was 26.0 mm; in assay [3] (a) ohne Inhibitor, 60′, listed as Nr. 28) it was 23.0 mm; in assay [3] (a) ohne Inhibitor, s (sofort), listed as Nr. 28) it was 22.5 mm; in assay [3] (b) 2 mM Jodacetamid, 7′, listed as Nr. 28) it was 20.8 mm; in assay [3] (b) 2 mM Jodacetamid, 30′, listed as Nr. 28), 18.3 mm. For the same molecule, the “Transacylierung von Isopenicillin N” value in assay [3] (b) 2 mM Jodacetamid, 60′, listed as Nr. 28) was 14.7 mm; in assay [3] (b) 2 mM Jodacetamid, s (sofort), listed as Nr. 28), 21.1 mm; in assay [3] (c) 2 mM PMSF, 7′, listed as Nr. 28), 24.7 mm; in assay [3] (c) 2 mM PMSF, 30′, listed as Nr. 28) it was 25.7 mm; in assay [3] (c) 2 mM PMSF, 60′, listed as Nr. 28) it was 20.7 mm; in assay [3] (c) 2 mM PMSF, s (sofort), listed as Nr. 28) it was 22.7 mm.

With `CC1(C)S[C@@H]2[C@H](NC(=O)CCC[C@H](N)C(=O)O)C(=O)N2[C@H]1C(=O)O` [Isopenicillin N Nr. 36, Isopenicillin N], the “HH ⌀ mm” value in assay [2] (Isopenicillin N Std. 12.5 µg/ml) came to 18.4 mm; in assay [2] (Isopenicillin N Std. 25 µg/ml), 22.1 mm; in assay [2] (Isopenicillin N Std. 50 µg/ml), 24.5 mm. Moreover, the “Transacylierung von Isopenicillin N” value in assay [3] (a) ohne Inhibitor, 7′, listed as Nr. 36) is 28.3 mm; in assay [3] (a) ohne Inhibitor, 30′, listed as Nr. 36), 30.8 mm; in assay [3] (a) ohne Inhibitor, 60′, listed as Nr. 36), 28.7 mm; in assay [3] (a) ohne Inhibitor, s (sofort), listed as Nr. 36), 27.0 mm; in assay [3] (b) 2 mM Jodacetamid, 7′, listed as Nr. 36), 25.0 mm; in assay [3] (b) 2 mM Jodacetamid, 30′, listed as Nr. 36) it was 23.6 mm. For the same molecule, the “Transacylierung von Isopenicillin N” value is listed as 22.1 mm in assay [3] (b) 2 mM Jodacetamid, 60′, listed as Nr. 36); 25.2 mm in assay [3] (b) 2 mM Jodacetamid, s (sofort), listed as Nr. 36); 27.2 mm in assay [3] (c) 2 mM PMSF, 7′, listed as Nr. 36); 27.7 mm in assay [3] (c) 2 mM PMSF, 30′, listed as Nr. 36); 26.7 mm in assay [3] (c) 2 mM PMSF, 60′, listed as Nr. 36); 26.3 mm in assay [3] (c) 2 mM PMSF, s (sofort), listed as Nr. 36).

As to `CC1(C)S[C@@H]2[C@H](NC(=O)CCC[C@H](N)C(=O)O)C(=O)N2[C@H]1C(=O)O` [Isopenicillin N], the results for the “mittels HPLC bestimmte spezifische Enzymaktivität (mU/mg Protein) A1 278/2” value in assay [1] (setting [6]), in assay [1] (setting [7]) and in assay [1] (setting [5]) were 146 mU/mg Protein, 80 mU/mg Protein and 150 mU/mg Protein, respectively.

Regarding `CC1(C)S[C@@H]2[C@H](NC(=O)COc3ccccc3)C(=O)N2[C@H]1C(=O)O` [Kalium Penicillin V], the “HH ⌀ mm” value is on record as 11.9 mm in assay [2] (Penicillin V Std. 0.25 µg/ml); 18.4 mm in assay [2] (Penicillin V Std. 0.5 µg/ml); 23.4 mm in assay [2] (Penicillin V Std. 1.0 µg/ml); 24.7 mm in assay [2] (Penicillin V Std. 1.5 µg/ml); 27.4 mm in assay [2] (Penicillin V Std. 2.0 µg/ml). Further, the “Spaltung von Kalium Penicillin V (HH ⌀ mm)” value in assay [4] (a) ohne Inhibitor, 7′) is listed as 21.8 mm; in assay [4] (a) ohne Inhibitor, 30′), 0 mm; in assay [4] (a) ohne Inhibitor, 60′), 0 mm; in assay [4] (a) ohne Inhibitor, s), 25.7 mm; in assay [4] (b) + 2 mM Jodacetamid, 7′), 23.1 mm; in assay [4] (b) + 2 mM Jodacetamid, 30′), 0 mm. The “Spaltung von Kalium Penicillin V (HH ⌀ mm)” value in assay [4] (b) + 2 mM Jodacetamid, 60′) is 0 mm; in assay [4] (b) + 2 mM Jodacetamid, s), 25.7 mm; in assay [4] (c) + 2 mM Ethylmaleinimid, 7′), 23.0 mm; in assay [4] (c) + 2 mM Ethylmaleinimid, 30′), 0 mm; in assay [4] (c) + 2 mM Ethylmaleinimid, 60′), 0 mm; in assay [4] (c) + 2 mM Ethylmaleinimid, s), 25.0 mm. Besides, the “Spaltung von Kalium Penicillin V (HH ⌀ mm)” value in assay [4] (d) + 2 mM PMSF, 7′) was 0 mm; in assay [4] (d) + 2 mM PMSF, 30′), 0 mm; in assay [4] (d) + 2 mM PMSF, 60′) it was 0 mm; in assay [4] (d) + 2 mM PMSF, s) it was 25.3 mm.

On to `CC1(C)S[C@@H]2[C@H](NC(=O)Cc3ccccc3)C(=O)N2[C@H]1C(=O)O` [Penicillin G], for which the “mittels HPLC bestimmte spezifische Enzymaktivität (mU/mg Protein) A1 278/2” value in assay [1] (setting [6]) is 25 mU/mg Protein; in assay [1] (setting [5]) it was 17 mU/mg Protein.

With `CC1(C)S[C@@H]2[C@H](NC(=O)COc3ccccc3)C(=O)N2[C@H]1C(=O)O` [Penicillin V], the zone of inhibition at 0.25 µg/mL in assay [2] (Micrococcus luteus, ATCC9341, 15 h, Penicillin V Std. 0.25 µg/ml, read-out: HH ⌀ mm) worked out at 9.7 mm. Further, in assay [2] (Micrococcus luteus, ATCC9341, 15 h, Penicillin V Std. 0.5 µg/ml, read-out: HH ⌀ mm), the zone of inhibition at 0.5 µg/mL came to 17.6 mm. Moreover, the zone of inhibition at 1 µg/mL in assay [2] (Micrococcus luteus, ATCC9341, 15 h, Penicillin V Std. 1.0 µg/ml, read-out: HH ⌀ mm) worked out at 21.7 mm. For the same molecule, in assay [2] (Micrococcus luteus, ATCC9341, 15 h, Penicillin V Std. 1.5 µg/ml, read-out: HH ⌀ mm), the zone of inhibition at 1.5 µg/mL worked out at 24 mm. For the same molecule, the zone of inhibition at 2 µg/mL in assay [2] (Micrococcus luteus, ATCC9341, 15 h, Penicillin V Std. 2.0 µg/ml, read-out: HH ⌀ mm) came to 25.3 mm. The “HH ⌀ mm” value in assay [2] (Penicillin V Std. 0.25 µg/ml) is 11.9 mm; in assay [2] (Penicillin V Std. 0.5 µg/ml) it was 17.8 mm and 18.4 mm; in assay [2] (Penicillin V Std. 1.0 µg/ml) it was 23.4 mm; in assay [2] (Penicillin V Std. 1.5 µg/ml), 24.7 mm; in assay [2] (Penicillin V Std. 2.0 µg/ml), 27.4 mm. The “mittels HPLC bestimmte spezifische Enzymaktivität (mU/mg Protein) A1 278/2” value in assay [1] (setting [7]) was determined as 99 mU/mg Protein; in assay [1] (setting [5]), 75 mU/mg Protein.

Penicillin: the “antibakterielle Sensitivität gegenüber Penicillin als gegenüber 6-APA” value in assay [2] (Micrococcus luteus ATCC 9341, relative to 6-APA) is “mehr als drei Zehnerpotenzen”.

These data come from patent EP0336446A1, “Gene and gene product for the production of beta-lactam-compounds” (BIOCHEMIE GESELLSCHAFT M.B.H., priority 1988, dated 1989).
